Common to all, as to experiment: ITC
In general terms: ITC needs no label: the signal is the heat of the interaction.

The test system of experiment [1] is NCB (DNA, aptamer) CTTACGACACAGGGCGTGGAGGAGCTGGGCTATTAGGGGTCGTAAG
The subject of experiment [2] is NC423 (DNA, aptamer) CTTACGACTTGTTCTGAGGGTCAACGGTGGTGTAGTTAGTCGTAAG
Experiment [3] relates to NC1947 (DNA, aptamer) CTTACGACACAGGGCGTGGAGTGGCTGGGCTTCAAGGGGTCGTAAG
Experiment [4] relates to OM7 (DNA, aptamer) GGGACGACATCGTAGGGGCACACGCTTAACGGGCTGATGTCGTCCC
The subject of experiment [5] is FXd (DNA, aptamer) GGGACGACGGTGTGGGGGTAGGGGGTGTGGGAAGCGGCGTCGTCCC
The note with it: 23 °C; selection buffer (Supplementary Table S1); one-site model.

Structures are written as SMILES.

The results in this text go back to paper PMC11952966 (2025).

Broadly, the KD is the concentration at which binding is half-saturated. Read a low KD as higher affinity.

As for `COC(=O)[C@H]1[C@@H](OC(=O)c2ccccc2)C[C@@H]2CC[C@H]1N2C`, the results for the KD in experiment [1], in experiment [2] and in experiment [3] were 1.0 µM, 22 nM and 123 nM, respectively.
In experiment [4], `COc1ccc2c3c1O[C@H]1C(=O)CC[C@@]4(O)[C@@H](C2)N(C)CC[C@]314` displayed a KD of 1.4 µM. That is a single-digit micromolar value.
On to `Cc1c(Nc2ncccc2C(=O)O)cccc1C(F)(F)F`, for which the KD in experiment [5] was determined as 27.4 µM.
